Test results taken from US7579356B2, “Thia-tetraazaacenaphthylene kinase inhibitors” (Janssen Pharmaceutica NV, priority 2005, dated 2009).

Tests used:
[1] = biological target: T1, EGFR (Homo sapiens, UniProt P00533); experiment: EGFR Kinase Assay; assay type: biochemical; details: for IC50: GST-EGFR, ATP 5 μM; for inhibition at 2 µM: test concentration of 2 μM, compounds without an IC50, read-out: EGFR inhibition in percent
T1 construct: The intracellular portion of EGFR started at nucleotide 2189 (corresponding to amino acid 667) and ended at the termination codon; made in house; host or cells: Sf9 insect cells (baculovirus)
How it was run: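 GST-fused human EGFR intracellular domain (from aa 667), Sf9-expressed, phosphorylated biotinylated polyGluTyr with 5 μM ATP plus γ-33P ATP in Tris pH 8.0, MgCl2, vanadate, 1 mM DTT, 1 h at 30 °C. Streptavidin Flashplate scintillation read; triplicate 16-point half-log series from 200 uM; IC50 from % inhibition vs log concentration, else % inhibition at 2 μM.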

[2] = biological target: T2, HER-2 (Homo sapiens, UniProt P04626); experiment: HER-2 Kinase Assay; assay type: biochemical; details: value in parentheses
T2 construct: His6 with thrombin site (N); purchased Proqinase (Freiburg, Germany)
Description: The HER-2 kinase used was purified at Proqinase (Freiburg, Germany) from a construct that consisted of a fusion of GST (Glutathione-S-Transferase), HIS6-Thrombin and the nucleotides encoding amino acids 679 to 1255 of HER-2 (Accession Number M11730).
A mixture of a 10× kinase reaction buffer (600 mM Hepes at pH 7.5, 30 mM Magnesium Chloride, 0.03 mM Sodium Vanadate and 500 μg/mL PEG 20,000), DTT (1.2 mM final from a 10 mM stock), APT (1 μM from a 10 mM stock), biotinylated polyGluTyr (1.5 ng/μL final from stock of 1 μg/μL) prepared by Upstate Biotechnologies, Lake Placid, N.Y.), Manganese Chloride (3 mM final from a 1 M stock), γ-^33P-ATP (10 μCl/μL stock) and water (70 μL/well) was added to each well of a Streptavidin Flashplate (Cat. # SMP103, NEN, Boston, Mass.).
Test compound stock (1 μL) was added to the appropriate wells. Diluted GSTHER2 kinase (6.7 ng/μL diluted into 50 mM Tris-HCl at pH 8.0 and 0.1% bovine serum albumin) (30 μL) was added (total volume of 200 ng/well) to initiate the reactions.
The reaction plates were incubated at 30° C. for 1 hr. The reaction was terminated by aspirating the reaction mixture from the plate wells and washing the wells three times with a 1×PBS stop buffer (300 μL) and 100 mM EDTA. After the final wash, the same stop buffer (200 μL) was again added to the wells. The plates were then sealed and read on the TopCount scintillation counter.
The Her-2 inhibition values were derived according to the procedure described in Example 164 and are shown as percent in Table 4 at a test concentration of 1 μM. For those compounds with an IC50, the IC50 value in μM is shown in parentheses. For compounds with multiple test values, each value represents a separate assay result.

T1 sequence (P00533 669-1210 limits assumed): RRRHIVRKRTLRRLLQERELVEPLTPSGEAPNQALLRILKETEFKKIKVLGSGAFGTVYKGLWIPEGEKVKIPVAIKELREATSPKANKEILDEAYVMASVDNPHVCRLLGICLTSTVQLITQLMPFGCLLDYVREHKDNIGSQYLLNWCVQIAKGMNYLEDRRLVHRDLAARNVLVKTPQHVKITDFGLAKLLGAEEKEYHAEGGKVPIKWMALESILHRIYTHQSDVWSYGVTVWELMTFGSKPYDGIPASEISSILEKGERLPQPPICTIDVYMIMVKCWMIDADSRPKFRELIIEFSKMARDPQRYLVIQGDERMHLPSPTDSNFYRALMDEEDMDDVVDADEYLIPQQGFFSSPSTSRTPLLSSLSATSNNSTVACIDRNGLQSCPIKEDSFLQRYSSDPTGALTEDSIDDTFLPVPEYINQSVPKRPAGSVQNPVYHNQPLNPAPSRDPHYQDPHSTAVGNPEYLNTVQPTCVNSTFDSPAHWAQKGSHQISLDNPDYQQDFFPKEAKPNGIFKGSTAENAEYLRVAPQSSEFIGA
T2 sequence (P04626 679-1255): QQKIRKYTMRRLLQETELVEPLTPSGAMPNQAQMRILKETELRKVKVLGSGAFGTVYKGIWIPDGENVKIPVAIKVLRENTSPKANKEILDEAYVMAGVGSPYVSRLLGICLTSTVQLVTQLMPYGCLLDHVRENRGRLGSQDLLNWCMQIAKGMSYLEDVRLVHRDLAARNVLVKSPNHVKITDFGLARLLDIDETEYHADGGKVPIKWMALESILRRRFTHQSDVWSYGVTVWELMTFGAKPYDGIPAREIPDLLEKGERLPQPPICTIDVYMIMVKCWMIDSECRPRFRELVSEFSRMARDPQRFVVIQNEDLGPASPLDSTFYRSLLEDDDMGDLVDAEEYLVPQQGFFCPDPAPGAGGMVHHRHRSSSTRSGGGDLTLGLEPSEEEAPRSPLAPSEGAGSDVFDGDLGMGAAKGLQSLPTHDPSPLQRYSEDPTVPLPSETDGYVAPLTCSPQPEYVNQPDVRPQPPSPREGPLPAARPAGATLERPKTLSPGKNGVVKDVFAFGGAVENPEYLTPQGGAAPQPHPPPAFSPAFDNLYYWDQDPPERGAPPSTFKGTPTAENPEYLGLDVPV

| SMILES | IC50 [1] [nM] | IC50 [2] [nM] | inhibition at 2 µM [1] [%] |
| --- | --- | --- | --- |
| O=C(Nc1ccc(CN2CCCCC2)cc1)c1sc2ncnc3c2c1NC(=O)N3c1ccc(Br)cc1 [Cpd 195, 5-(4-bromo-phenyl)-4-oxo-4,5-dihydro-3H-1-thia-3,5,6,8-tetraaza-acenaphthylene-2-carboxylic acid (4-piperidin-1-ylmethyl-phenyl)-amide] | 97 | 94 |  |
| O=C(Nc1ccc(CN2CCCCC2)cc1)c1sc2ncnc3c2c1NC(=O)N3c1cccc(Oc2ccccc2)c1 [Cpd 197, 4-oxo-5-(3-phenoxy-phenyl)-4,5-dihydro-3H-1-thia-3,5,6,8-tetraaza-acenaphthylene-2-carboxylic acid (4-piperidin-1-ylmethyl-phenyl)-amide] | 39 | 175 |  |
| COc1ccc(C(=O)c2sc3ncnc4c3c2NC(=O)N4c2ccc(Oc3ccccc3)cc2)cc1OC [Cpd 202] |  | > 100000 | 31 |
| O=C(Nc1ccc(CN2CCOCC2)c(F)c1)c1sc2ncnc3c2c1NC(=O)N3c1ccc(Oc2ccccc2)cc1 [Cpd 203, 4-oxo-5-(4-phenoxy-phenyl)-4,5-dihydro-3H-1-thia-3,5,6,8-tetraaza-acenaphthylene-2-carboxylic acid (3-fluoro-4-morpholin-4-ylmethyl-phenyl)-amide] | 35 | 60 |  |
| CCOc1cc(NC(=O)c2sc3ncnc4c3c2NC(=O)N4c2ccc(Oc3ccccc3)cc2)ccc1CN1CCOCC1 [Cpd 207, 4-oxo-5-(4-phenoxy-phenyl)-4,5-dihydro-3H-1-thia-3,5,6,8-tetraaza-acenaphthylene-2-carboxylic acid (3-ethoxy-4-morpholin-4-ylmethyl-phenyl)-amide] | 16 | 15 |  |
| O=C(Nc1ccc(CN2CCOCC2)cc1)c1sc2ncnc3c2c1NC(=O)N3c1ccc(Oc2cccnc2)c(Cl)c1 [Cpd 208, 5-[3-chloro-4-(pyridin-3-yloxy)-phenyl]-4-oxo-4,5-dihydro-3H-1-thia-3,5,6,8-tetraaza-acenaphthylene-2-carboxylic acid (4-morpholin-4-ylmethyl-phenyl)-amide] | 133 | 57 |  |
| O=C(Nc1ccc(CN2CCCCC2)cc1)c1sc2ncnc3c2c1NC(=O)N3c1ccc(Oc2cccnc2)c(Cl)c1 [Cpd 209, 5-[3-chloro-4-(pyridin-3-yloxy)-phenyl]-4-oxo-4,5-dihydro-3H-1-thia-3,5,6,8-tetraaza-acenaphthylene-2-carboxylic acid (4-piperidin-1-ylmethyl-phenyl)-amide] | 101 | 72 |  |
| CCOC(=O)c1sc2ncnc3c2c1NC(=O)N3c1ccc(Sc2ccccc2)cc1 [Cpd 210, 4-oxo-5-(4-phenylsulfanyl-phenyl)-4,5-dihydro-3H-1-thia-3,5,6,8-tetraaza-acenaphthylene-2-carboxylic acid ethyl ester] | 615 | > 10000 |  |
| CN1CCC(NC(=O)c2sc3ncnc4c3c2NC(=O)N4c2ccc(Oc3ccccc3)cc2)CC1 [Cpd 211, 4-oxo-5-(4-phenoxy-phenyl)-4,5-dihydro-3H-1-thia-3,5,6,8-tetraaza-acenaphthylene-2-carboxylic acid (1-methyl-piperidin-4-yl)-amide] | 63 | 518 |  |
| CN1CCN(C(=O)c2sc3ncnc4c3c2NC(=O)N4c2ccc(Oc3ccccc3)cc2)CC1 [Cpd 216, 2-(4-methyl-piperazine-1-carbonyl)-5-(4-phenoxy-phenyl)-3H,5H-1-thia-3,5,6,8-tetraaza-acenaphthylen-4-one] | 780 | ~100000 |  |
| O=C(NCCc1ccccn1)c1sc2ncnc3c2c1NC(=O)N3c1ccc(Oc2ccccc2)cc1 [Cpd 217, 4-oxo-5-(4-phenoxy-phenyl)-4,5-dihydro-3H-1-thia-3,5,6,8-tetraaza-acenaphthylene-2-carboxylic acid (2-pyridin-2-yl-ethyl)-amide] | 225 | > 100000 |  |

Results, then the molecule that gave them:

| IC50 [1] [nM] | IC50 [2] [nM] | inhibition at 2 µM [1] [%] | SMILES |
| --- | --- | --- | --- |
| 704 | > 1000 |  | O=C(Nc1ccc(CN2CCOCC2)cc1)c1sc2ncnc3c2c1NC(=O)N3c1ccc2nc(Cc3cccc(F)c3)[nH]c2c1 [Cpd 193, 5-[2-(3-fluoro-benzyl)-3H-benzoimidazol-5-yl]-4-oxo-4,5-dihydro-3H-1-thia-3,5,6,8-tetraaza-acenaphthylene-2-carboxylic acid (4-morpholin-4-ylmethyl-phenyl)-amide] |
|  | 5770 | 31 | CN1CCC(NC(=O)c2sc3ncnc4c3c2NC(=O)N4c2ccc3nc(Cc4cccc(F)c4)[nH]c3c2)CC1 [Cpd 194, 5-[2-(3-fluoro-benzyl)-3H-benzoimidazol-5-yl]-4-oxo-4,5-dihydro-3H-1-thia-3,5,6,8-tetraaza-acenaphthylene-2-carboxylic acid (1-methyl-piperidin-4-yl)-amide] |
| 206 | 122 |  | O=C(Nc1ccc(CN2CCOCC2)cc1)c1sc2ncnc3c2c1NC(=O)N3c1ccc(Br)cc1 [Cpd 196, 5-(4-bromo-phenyl)-4-oxo-4,5-dihydro-3H-1-thia-3,5,6,8-tetraaza-acenaphthylene-2-carboxylic acid (4-morpholin-4-ylmethyl-phenyl)-amide] |
| 155 | 613 |  | CN1CCN(Cc2ccc(NC(=O)c3sc4ncnc5c4c3NC(=O)N5c3cccc(Oc4ccccc4)c3)cc2)CC1 [Cpd 199, 4-oxo-5-(3-phenoxy-phenyl)-4,5-dihydro-3H-1-thia-3,5,6,8-tetraaza-acenaphthylene-2-carboxylic acid [4-(4-methyl-piperazin-1-ylmethyl)-phenyl]-amide] |
| 89 | 130 |  | COc1cc(NC(=O)c2sc3ncnc4c3c2NC(=O)N4c2cccc(Oc3ccccc3)c2)ccc1CN1CCOCC1 [Cpd 200, 4-oxo-5-(3-phenoxy-phenyl)-4,5-dihydro-3H-1-thia-3,5,6,8-tetraaza-acenaphthylene-2-carboxylic acid (3-methoxy-4-morpholin-4-ylmethyl-phenyl)-amide] |
| 106 | 92 |  | COc1cc(NC(=O)c2sc3ncnc4c3c2NC(=O)N4c2ccc(Br)cc2)ccc1CN1CCOCC1 [Cpd 201, 5-(4-bromo-phenyl)-4-oxo-4,5-dihydro-3H-1-thia-3,5,6,8-tetraaza-acenaphthylene-2-carboxylic acid (3-methoxy-4-morpholin-4-ylmethyl-phenyl)-amide] |
| 689 | 1440 |  | O=C(Nc1ccc(CN2CCCCC2)cc1)c1sc2ncnc3c2c1NC(=O)N3c1ccc([S+]([O-])c2ccccc2)cc1 (stereo not shown) [Cpd 205, 5-(4-benzenesulfinyl-phenyl)-4-oxo-4,5-dihydro-3H-1-thia-3,5,6,8-tetraaza-acenaphthylene-2-carboxylic acid (4-piperidin-1-ylmethyl-phenyl)-amide] |
|  | ~100000 | 12 | CCOC(=O)C=Cc1ccc(NC(=O)c2sc3ncnc4c3c2NC(=O)N4c2ccc3nc(Cc4cccc(F)c4)[nH]c3c2)cc1 [Cpd 206, 3-[4-({5-[2-(3-fluoro-benzyl)-3H-benzoimidazol-5-yl]-4-oxo-4,5-dihydro-3H-1-thia-3,5,6,8-tetraaza-acenaphthylene-2-carbonyl}-amino)-phenyl]-acrylic acid ethyl ester] |
| 36 | 168 |  | CN(C)CCCNC(=O)c1sc2ncnc3c2c1NC(=O)N3c1ccc(Sc2ccccc2)cc1 [Cpd 212, 4-oxo-5-(4-phenylsulfanyl-phenyl)-4,5-dihydro-3H-1-thia-3,5,6,8-tetraaza-acenaphthylene-2-carboxylic acid (3-dimethylamino-propyl)-amide] |
|  | > 10000 | 48 | O=C(c1sc2ncnc3c2c1NC(=O)N3c1ccc(Oc2ccccc2)cc1)N1CCN(CCN2CCOCC2)CC1 [Cpd 213, 2-[4-(2-morpholin-4-yl-ethyl)-piperazine-1-carbonyl]-5-(4-phenoxy-phenyl)-3H,5H-1-thia-3,5,6,8-tetraaza-acenaphthylen-4-one] |
| 1300 | > 10000 |  | CN1CCCN(C(=O)c2sc3ncnc4c3c2NC(=O)N4c2ccc(Oc3ccccc3)cc2)CC1 [Cpd 214, 2-(4-methyl-[1,4]diazepane-1-carbonyl)-5-(4-phenoxy-phenyl)-3H,5H-1-thia-3,5,6,8-tetraaza-acenaphthylen-4-one] |
| 121 | 4460 |  | CN1CCN(NC(=O)c2sc3ncnc4c3c2NC(=O)N4c2ccc(Oc3ccccc3)cc2)CC1 [Cpd 215, 4-oxo-5-(4-phenoxy-phenyl)-4,5-dihydro-3H-1-thia-3,5,6,8-tetraaza-acenaphthylene-2-carboxylic acid (4-methyl-piperazin-1-yl)-amide] |
